Results as given in patent US6818445B2 (Synaptic Pharmaceutical Corporation, priority 1994, dated 2004).
pKi: −log10 of the molar value. Several values for one entry are separate records, joined by “and”; a condition that tells them apart may be missing. Equal entries are not always repeated. Structures can show the parent of a compound that is named as a salt. Where two headings read alike, the source gives them in different places.

Assays:
[1] = tested on: NPY-induced feeding behavior in satiated rats; experiment: NPY-induced food intake in satiated rats; format: in vivo, rat; conditions: for Food intake (g) mean ± S.E.M., NPY + compound: compound 10 mg/kg i.p., then 300 pmole NPY i.c.v., 4 hours after NPY
Procedure: The rats are individually housed in stainless steel cages and maintained on an 11:13 h light-dark cycle (lights off at 18:00 h) at a controlled temperature of 21-23° C. at all times. Water and food (NAFAG lab chow pellets NAFAG, Gossau, Switzerland) are available ad libidum.
The guide cannula is placed on the dura. Injection cannulas extend the guide cannulas −3.8 mm ventrally to the skull surface. Animals are allowed at least 4 days of recovery postoperatively before being used in the experiments. Cannula placement is checked postoperatively by testing all rats for their drinking response to a 50 ng intracerebroventricular (i.c.v.) injection of angiotensin II. Only rats which drink at least 2.5 ml of water within 30 min. after angiotensin II injection are used in the feeding studies.
All injections are made in the morning 2 hours after light onset. Peptides are injected in artificial cerebrospinal fluid (ACSF) in a volume of 5 μl.
Pellets are then removed from the cage subsequently at each selected time point and replaced with a new set of preweighed pellets. The food intake of animals treated with test compound may be calculated as a percentage of the food intake of control animals i.e., animals treated with vehicle. Alternatively, food intake for each group of animals subjected to a particular experimental condition may be expressed as the mean±S.E.M. Statistical analysis is performed by analysis of variance using the Student-Newman-Keuls test.
Food intake is reported as the mean±S.E.M. intake for a group of animals.

[2] = tested on: food intake of 24 h food-deprived rats; experiment: Food intake in food-deprived rats; format: in vivo, rat; conditions: 30 mg/kg i.p. after 24 h food deprivation, percentage of intake compared to control rats
Procedure: At the end of the equilibration period, food is removed from the animals for 24 hours starting at 8:00 a.m. At the end of the fasting period compound or vehicle may be administered to the animals orally or by injection intraperitoneally or intravenously. After 10-60 min. food is returned to the animals and their food intake is monitored at various time periods during the following 24 hour period. The food intake of animals treated with test compound may be calculated as a percentage of the food intake of control animals (i.e., animals treated with vehicle). Alternatively, food intake for each group of animals subjected to a particular experimental condition may be expressed as the mean±S.E.M.
Therefore, the Y5 antagonists of Table 14 were administered by intraperitoneal injection at a dose of 30 mg/kg to conscious rats following a 24 h food deprivation. […] Measurements were performed two hours after administration of the test compound.

human 5HT1Dβ receptor = human 5HT1Dβ receptor (Homo sapiens, UniProt P28222); experiment: Binding to human 5HT1Dβ receptor, [3H]serotonin; conditions: cloned human receptor; read-out: Receptor (pKi) 5HT1Dβ (converted)
human 5HT1F receptor = biological target: T1, human 5HT1F receptor (Homo sapiens, UniProt P30939); experiment: Binding to human 5HT1F receptor, [3H]serotonin
T1 sequence (P30939 1-366): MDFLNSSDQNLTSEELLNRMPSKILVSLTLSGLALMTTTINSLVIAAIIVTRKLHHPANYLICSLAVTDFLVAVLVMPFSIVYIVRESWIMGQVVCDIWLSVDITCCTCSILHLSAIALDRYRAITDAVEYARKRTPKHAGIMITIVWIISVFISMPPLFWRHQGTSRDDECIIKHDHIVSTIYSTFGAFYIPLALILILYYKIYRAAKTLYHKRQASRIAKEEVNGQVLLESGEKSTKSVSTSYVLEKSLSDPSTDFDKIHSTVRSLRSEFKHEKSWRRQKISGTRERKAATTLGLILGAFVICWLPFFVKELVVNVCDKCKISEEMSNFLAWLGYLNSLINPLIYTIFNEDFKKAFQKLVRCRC

human 5HT1E receptor = human 5HT1E receptor (Homo sapiens, UniProt P28566); experiment: Binding to human 5HT1E receptor, [3H]serotonin
human 5HT1Dα receptor = human 5HT1Dα receptor (Homo sapiens, UniProt P28221); experiment: Binding to human 5HT1Dα receptor, [3H]serotonin
human α2C receptor = biological target: T2, human α2C receptor (Homo sapiens, UniProt P18825); experiment: Binding to cloned human α2C adrenergic receptor, [3H]rauwolscine
T2 sequence (P18825 1-462): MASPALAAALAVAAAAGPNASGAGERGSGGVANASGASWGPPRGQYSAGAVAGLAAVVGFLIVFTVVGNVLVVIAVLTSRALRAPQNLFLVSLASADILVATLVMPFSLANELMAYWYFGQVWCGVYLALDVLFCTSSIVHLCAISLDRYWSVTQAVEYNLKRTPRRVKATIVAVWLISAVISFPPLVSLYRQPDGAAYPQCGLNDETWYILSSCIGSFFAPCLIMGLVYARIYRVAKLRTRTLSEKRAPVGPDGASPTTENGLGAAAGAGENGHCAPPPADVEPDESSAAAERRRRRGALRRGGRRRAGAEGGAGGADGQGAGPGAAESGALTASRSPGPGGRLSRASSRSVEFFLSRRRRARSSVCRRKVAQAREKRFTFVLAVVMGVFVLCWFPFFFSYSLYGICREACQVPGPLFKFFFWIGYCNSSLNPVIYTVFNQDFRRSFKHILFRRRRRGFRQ

human Y4 receptor = human Y4 receptor (Homo sapiens, UniProt P50391); format: binding; conditions: Table 14; for Ki: read-out: Binding Affinity (Ki (nM) vs. ^125I-PYY) Human Receptor Y4
human Y1 receptor = biological target: T3, human Y1 receptor (Homo sapiens, UniProt P25929); conditions: read-out: Binding Affinity (Ki (nM) vs. ^125I-PYY) Human Receptor Y1; Table 14
T3 sequence (P25929 1-384): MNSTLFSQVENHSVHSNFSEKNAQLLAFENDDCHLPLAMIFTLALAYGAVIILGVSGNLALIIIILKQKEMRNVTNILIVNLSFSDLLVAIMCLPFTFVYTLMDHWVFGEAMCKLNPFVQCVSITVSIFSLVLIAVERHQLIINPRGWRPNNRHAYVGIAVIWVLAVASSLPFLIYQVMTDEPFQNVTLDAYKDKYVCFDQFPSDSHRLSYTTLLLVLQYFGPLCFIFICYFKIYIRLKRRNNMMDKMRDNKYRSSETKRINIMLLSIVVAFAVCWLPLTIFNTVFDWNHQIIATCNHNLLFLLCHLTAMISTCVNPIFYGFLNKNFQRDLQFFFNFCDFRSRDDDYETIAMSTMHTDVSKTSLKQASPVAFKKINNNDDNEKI

human Y2 receptor = biological target: T4, human Y2 receptor (Homo sapiens, UniProt P49146); format: binding; conditions: Table 14; for Ki: read-out: Binding Affinity (Ki (nM) vs. ^125I-PYY) Human Receptor Y2
T4 sequence (P49146 1-381): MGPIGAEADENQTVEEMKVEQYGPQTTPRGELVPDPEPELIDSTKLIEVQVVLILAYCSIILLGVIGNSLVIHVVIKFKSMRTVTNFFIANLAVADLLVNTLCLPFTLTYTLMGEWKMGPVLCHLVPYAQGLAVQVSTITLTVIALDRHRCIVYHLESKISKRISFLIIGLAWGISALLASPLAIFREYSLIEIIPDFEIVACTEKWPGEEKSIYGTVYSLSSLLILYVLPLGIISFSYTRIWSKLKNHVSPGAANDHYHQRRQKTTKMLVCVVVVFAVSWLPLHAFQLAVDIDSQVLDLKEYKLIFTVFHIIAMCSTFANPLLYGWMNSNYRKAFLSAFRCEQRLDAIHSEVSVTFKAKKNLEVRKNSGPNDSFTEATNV

Sequence of human 5HT1E receptor (P28566 whole entry): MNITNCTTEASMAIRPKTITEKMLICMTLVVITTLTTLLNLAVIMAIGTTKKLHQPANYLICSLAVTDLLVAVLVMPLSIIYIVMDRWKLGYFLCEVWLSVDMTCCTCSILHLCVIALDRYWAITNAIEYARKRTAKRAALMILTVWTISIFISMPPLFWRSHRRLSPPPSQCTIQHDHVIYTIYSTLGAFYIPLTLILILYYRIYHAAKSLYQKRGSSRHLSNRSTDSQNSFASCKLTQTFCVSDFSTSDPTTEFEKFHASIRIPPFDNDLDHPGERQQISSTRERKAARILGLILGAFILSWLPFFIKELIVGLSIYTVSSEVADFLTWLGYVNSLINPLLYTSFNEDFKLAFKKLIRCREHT
Sequence of human Y4 receptor (P50391 whole entry): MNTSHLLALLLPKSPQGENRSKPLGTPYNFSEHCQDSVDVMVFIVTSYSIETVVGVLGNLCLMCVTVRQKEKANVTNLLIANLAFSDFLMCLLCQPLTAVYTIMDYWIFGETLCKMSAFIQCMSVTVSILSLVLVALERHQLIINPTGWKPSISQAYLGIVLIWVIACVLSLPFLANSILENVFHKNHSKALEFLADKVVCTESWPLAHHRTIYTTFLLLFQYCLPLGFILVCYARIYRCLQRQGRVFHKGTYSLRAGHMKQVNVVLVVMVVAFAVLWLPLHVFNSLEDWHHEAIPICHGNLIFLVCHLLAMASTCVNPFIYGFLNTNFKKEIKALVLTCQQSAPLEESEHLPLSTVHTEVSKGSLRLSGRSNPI
Sequence of human 5HT1Dβ receptor (P28222 whole entry): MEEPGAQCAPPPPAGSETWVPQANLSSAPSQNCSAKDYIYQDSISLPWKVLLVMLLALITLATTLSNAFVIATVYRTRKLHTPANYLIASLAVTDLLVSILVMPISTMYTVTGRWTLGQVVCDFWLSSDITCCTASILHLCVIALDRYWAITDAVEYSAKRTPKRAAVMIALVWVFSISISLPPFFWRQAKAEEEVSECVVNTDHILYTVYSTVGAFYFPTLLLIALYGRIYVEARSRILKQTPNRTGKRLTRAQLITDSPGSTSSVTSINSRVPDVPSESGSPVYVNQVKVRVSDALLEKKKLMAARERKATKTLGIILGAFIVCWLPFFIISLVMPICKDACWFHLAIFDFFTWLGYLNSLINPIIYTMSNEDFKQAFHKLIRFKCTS
Sequence of human 5HT1Dα receptor (P28221 whole entry): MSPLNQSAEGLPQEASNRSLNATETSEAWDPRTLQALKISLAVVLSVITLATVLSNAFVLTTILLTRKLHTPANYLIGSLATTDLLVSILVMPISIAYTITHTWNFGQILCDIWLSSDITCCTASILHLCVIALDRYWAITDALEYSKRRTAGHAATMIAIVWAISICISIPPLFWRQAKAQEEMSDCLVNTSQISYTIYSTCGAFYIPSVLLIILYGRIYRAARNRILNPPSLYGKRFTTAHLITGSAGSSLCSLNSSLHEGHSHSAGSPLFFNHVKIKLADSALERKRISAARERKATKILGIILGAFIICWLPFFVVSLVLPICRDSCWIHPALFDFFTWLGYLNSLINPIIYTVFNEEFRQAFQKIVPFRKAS

Row | Compound | Two-hour food intake of food-deprived rats, Mean (%) [2] [%] | Ki (human 5HT1Dβ receptor) [µM] | pKi (human 5HT1F receptor) | pKi (human 5HT1E receptor) | further results
1 | Cl.c1ccc(Nc2nc(Nc3ccccc3)c3ccccc3n2)cc1 [Compound 1, 2,4-Diphenylamino-quinazoline Hydrochloride] | 34 | ≥ 5.01 | ≤ 5.30 | ≤ 5.30 | Food intake (g) mean ± S.E.M., NPY + compound [1]: 4.6 ± 0.6 g
2 | Nc1nc(NCCCCCCNS(=O)(=O)c2cccc3ccccc23)nc2ccccc12 [Compound 2, Naphthalene-1-sulfonic Acid [6-(4-amino-quinazolin-2-ylamino)-hexyl]-amide] | 42 | – | – | – | –
3 | Cl.Nc1nc(NC[C@H]2CC[C@H](CNS(=O)(=O)c3cccc4ccccc34)CC2)nc2ccccc12 [Compound 5, trans-Naphthalene-1-sulfonic Acid {4-[(4-amino-quinazolin-2-ylamino)-methyl]-cyclohexylmethyl}-amide Hydrochloride] | – | – | ≤ 5.30 | ≤ 5.30 | Food intake (g) mean ± S.E.M., NPY + compound [1]: 4.1 ± 0.4 g
4 | c1ccc(Nc2nc(Nc3ccc(N4CCCCC4)cc3)nc3ccccc23)cc1 [Compound 6, 2-[4-(Piperidin-1-yl)-phenylaminol-4-phenylamino-quinazoline Dihydrochloride] | 38 | ≥ 5.01 | ≤ 5.30 | ≤ 5.30 | pKi (human 5HT1Dα receptor): ≤ 5.30; Receptor (pKi) α2c (human α2C receptor): 6.35
5 | CC(=O)O[C@H]1CC[C@H](Nc2nc(Nc3ccccc3)c3ccccc3n2)CC1 [Compound 7, trans-2-(4-Acetoxy-cvclohexylamino)-4-phenylamino-quinazoline Hydrochloride] | – | ≥ 5.01 | ≤ 5.30 | ≤ 5.30 | –
6 | COc1ccc(Nc2nc(Nc3ccccc3)c3cccc(OC)c3n2)cc1.Cl [Compound 9, 8-Methoxy-2-(4-methoxy-phenylamino)-4-phenylamino-quinazoline Hydrochloride] | 40 | ≥ 5.01 | ≤ 5.30 | ≤ 5.30 | pKi (human 5HT1Dα receptor): ≤ 5.30
7 | CNS(=O)(=O)Cc1ccc(Nc2nc(Nc3ccccc3)c3cc(OC)ccc3n2)cc1.Cl [Compound 10, N-Methyl-[4-(6-methoxy-4-phenylamino-quinazolin-2-ylamino)-phenyl]-methanesulfonamide Hydrochloride] | 74 | ≥ 5.01 | ≤ 5.30 | ≤ 5.30 | pKi (human 5HT1Dα receptor): ≤ 5.30
8 | CNS(=O)(=O)Cc1ccc(Nc2nc(Nc3ccccc3)c3ccccc3n2)cc1.Cl [Compound 11, N-Methyl-[4-(4-phenylamino-quinazolin-2-ylamino)-phenyl]-methanesulfonamide Hydrochloride] | 15 | ≥ 5.01 | ≤ 5.30 | ≤ 5.30 | pKi (human 5HT1Dα receptor): ≤ 5.30
9 | Cl.O=S(=O)(NC[C@H]1CC[C@H](CNCC2CCc3ccccc3C2)CC1)c1ccc2ccccc2c1 (some centres unmarked) [Compound 17] | 27 | – | – | – | Food intake (g) mean ± S.E.M., NPY + compound [1]: 3.8 ± 0.4 g
10 | Cl.O=S(=O)(NCC1CCC(CNCc2ccc3ccccc3c2)CC1)c1ccccc1C(F)(F)F (centres unmarked) [Compound 21] | 80 | – | – | – | Ki (human Y4 receptor): 18500 nM; Ki (human Y1 receptor): 13000 nM; Ki (human Y2 receptor): 1610 nM
11 | Cl.O=S(=O)(NCC1CCC(CNCc2cccc3ccccc23)CC1)c1ccccc1C(F)(F)F (centres unmarked) [Compound 23] | 58 | – | – | – | Ki (human Y4 receptor): 21500 nM; Ki (human Y1 receptor): 14500 nM; Ki (human Y2 receptor): 617 nM
12 | O=S(=O)(NC[C@H]1CC[C@H](CNC(CO)Cc2ccc(Cl)cc2)CC1)c1cccc2ccccc12 (some centres unmarked) [Compound 25] | 32 | – | ≤ 5.30 | ≤ 5.30 | pKi (human Y4 receptor): 4.88; pKi (human Y2 receptor): 6.07
13 | Cl.Cl.O=[N+]([O-])c1ccccc1S(=O)(=O)NCC1CCC(CNCc2ccc3ccccc3n2)CC1 (centres unmarked) [Compound 26] | 73 | – | – | – | Ki (human Y4 receptor): 19300 nM; Ki (human Y1 receptor): 23700 nM; Ki (human Y2 receptor): 58200 nM
14 | NPY: neuropeptide Y, species not given (Table 1, cited text); in Table 15 300 pmole porcine NPY i.c.v. [reference compound] | – | – | – | – | Food intake (g) mean ± S.E.M., NPY ([1]; 300 pmole NPY i.c.v. alone, cumulative intake 4 hours after NPY, one value per compound experiment): 7.4 ± 0.5 g and 6.8 ± 1.0 g and 5.8 ± 0.5 g and 4.9 ± 0.4 g
